Experimental findings from PubChem BioAssay (NCI) are described below.

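Results reflect a 48-hour exposure of cells in 96-well plates to compound at five concentrations. At the TGI there is no net growth.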

Among the test systems are HT29 colon; SK-MEL-28 melanoma; SF-268 CNS; MOLT-4 leukemia; UACC-257 melanoma; SF-295 CNS; CCRF-CEM leukemia; K-562 leukemia; SR leukemia.
What all share (assay): NCI tumour cell line growth inhibition, 48 h

Regarding `CN(C)CCNC(=O)c1cccc2nc3ccc4ccccc4c3nc12`, the TGI was 1.25 µM in the test on HT29 colon; 1.05 µM in the test with SK-MEL-28 melanoma; 0.675 µM in the test with SF-268 CNS; 0.124 µM in the test on MOLT-4 leukemia; 0.531 µM with UACC-257 melanoma; 0.53 µM in the test with SF-295 CNS. Also, the TGI turned out to be 1.34 µM in the test with CCRF-CEM leukemia and 25.6 µM with K-562 leukemia.

On to `CC(=O)CC(=O)CCCC(=O)Nc1ccc(Cl)cc1C`, for which the TGI with HT29 colon, in the test on SF-268 CNS, in the test with MOLT-4 leukemia, in the test with UACC-257 melanoma, in the test with SF-295 CNS and in the test on CCRF-CEM leukemia was greater than 100 µM each time. The same compound came in with a TGI in the test with K-562 leukemia greater than 100 µM.

As for `COc1ccc2c(=O)c([Se]c3coc4cc(OC)ccc4c3=O)coc2c1`, the TGI in the test with HT29 colon, with SK-MEL-28 melanoma, in the test with SF-268 CNS, in the test with MOLT-4 leukemia, with UACC-257 melanoma and in the test with SF-295 CNS was greater than 100 µM throughout. Also, the TGI in the test with CCRF-CEM leukemia, in the test with K-562 leukemia and in the test with SR leukemia was greater than 100 µM in each case.

On to `CCc1cccc(C(C)CC)c1N=C(NC(=O)c1ccccc1C(=O)NC(=Nc1c(CC)cccc1C(C)CC)SC)SC` (stereo not drawn), for which the TGI with HT29 colon, in the test on SK-MEL-28 melanoma, in the test with SF-268 CNS, with MOLT-4 leukemia, in the test on UACC-257 melanoma and in the test on SF-295 CNS was greater than 100 µM each time. Further, the TGI in the test with CCRF-CEM leukemia, with K-562 leukemia and in the test on SR leukemia was greater than 100 µM each time.

Turning to `N=C(N)n1ncc(Cl)c(Cl)c1=O`, the TGI with SK-MEL-28 melanoma turned out to be 5.26 µM; in the test with SF-268 CNS, 9.34 µM; in the test with MOLT-4 leukemia it was 4.64 µM; with UACC-257 melanoma it was 4.66 µM; in the test on SF-295 CNS, 22.6 µM; with K-562 leukemia, 6.36 µM.

For the compound `CCOC(=O)CC(=O)ON(C)C(=O)Cc1ccccc1`, the TGI in the test on HT29 colon, with SF-268 CNS, in the test on UACC-257 melanoma, with SF-295 CNS, in the test on CCRF-CEM leukemia and in the test on SR leukemia was greater than 100 µM throughout.

Regarding `CC(=O)OC1C=CC2CCN3C(=O)c4cc5c(cc4[C@H]1C23)OCO5` (stereo partly drawn), the TGI in the test on HT29 colon, in the test on SK-MEL-28 melanoma, in the test on SF-268 CNS, in the test with MOLT-4 leukemia, with UACC-257 melanoma and in the test on SF-295 CNS was greater than 100 µM in each case. For the same compound, the TGI with CCRF-CEM leukemia, in the test on K-562 leukemia and in the test on SR leukemia was greater than 100 µM in each case.

Take `COc1ccc(/C=C/C(=O)c2sc(N)nc2C)cc1`: the TGI in the test on HT29 colon, in the test on SK-MEL-28 melanoma, with SF-268 CNS, in the test on MOLT-4 leukemia, with UACC-257 melanoma and in the test on SF-295 CNS was greater than 100 µM throughout. The TGI in the test on CCRF-CEM leukemia and with K-562 leukemia was greater than 100 µM in each case.

As to `COc1c(OC(C)=O)cc2c(OC(C)=O)c1CC(C)CC(OC)C(O)C(C)/C=C(\C)C(OC(N)=O)C(OC)/C=C\C=C(/C)C(=O)N2` (stereo not drawn), the TGI in the test with HT29 colon was greater than 100 µM; in the test on SK-MEL-28 melanoma it was greater than 100 µM; in the test with SF-268 CNS, greater than 100 µM; in the test with MOLT-4 leukemia, greater than 87.4 µM; in the test on UACC-257 melanoma, greater than 100 µM; in the test on SF-295 CNS, greater than 100 µM. In addition, the TGI in the test with CCRF-CEM leukemia is 98.3 µM; in the test on K-562 leukemia it was greater than 62.6 µM; in the test with SR leukemia, greater than 72.6 µM.

Consider `C/C(=N\NC(=O)CC(=O)Nc1ccc(C)cc1)c1cc2ccccc2oc1=O`, for which the TGI with HT29 colon, in the test with SK-MEL-28 melanoma, with MOLT-4 leukemia, in the test on UACC-257 melanoma, in the test with SF-295 CNS and in the test on CCRF-CEM leukemia was greater than 100 µM in each case. Further, the TGI in the test on K-562 leukemia was greater than 100 µM.

`OC1CN(OC/C=C/c2ccccc2)CC(O)C1O` (stereo not drawn): the TGI in the test on HT29 colon, with SK-MEL-28 melanoma, in the test on SF-268 CNS, with MOLT-4 leukemia, with UACC-257 melanoma and in the test on SF-295 CNS was greater than 100 µM in each case. Moreover, the TGI in the test on CCRF-CEM leukemia and in the test on K-562 leukemia was greater than 100 µM in each case.

`CCOC(=O)C1=C(Nc2ccccc2)OC/C1=N\NC(=O)Cc1ccccc1`: the TGI in the test with HT29 colon, with SK-MEL-28 melanoma, with SF-268 CNS, in the test on MOLT-4 leukemia, with UACC-257 melanoma and in the test on SF-295 CNS was greater than 50 µM in each case. For the same compound, the TGI in the test with CCRF-CEM leukemia and in the test with K-562 leukemia was greater than 50 µM throughout.

As to `C/C(CN1C(=O)c2ccccc2C1=O)=N\NS(=O)(=O)c1ccccc1`, the TGI in the test on HT29 colon, in the test on SK-MEL-28 melanoma, with SF-268 CNS, in the test with MOLT-4 leukemia, with UACC-257 melanoma and with SF-295 CNS was greater than 100 µM throughout. Besides, the TGI in the test on CCRF-CEM leukemia and with K-562 leukemia was greater than 100 µM throughout.

In the case of `Cc1ccc2nc3c(Cl)cc(=O)cc-3sc2c1`, the TGI with HT29 colon was found to be 91.7 µM; in the test on SK-MEL-28 melanoma, 81.4 µM; in the test with SF-268 CNS, 68.1 µM; with MOLT-4 leukemia it was 41.5 µM; with UACC-257 melanoma, 46.6 µM; in the test with SF-295 CNS, 63.2 µM. Besides, the values for the TGI in the test with CCRF-CEM leukemia and in the test with K-562 leukemia were 19.8 µM and 56.1 µM, respectively.

Regarding `O=C(c1cc(=O)c2ccc(O)cc2o1)c1ccc(Cl)cc1Cl`, the TGI is greater than 100 µM in the test with HT29 colon; greater than 100 µM in the test on SK-MEL-28 melanoma; greater than 100 µM in the test on SF-268 CNS; 22.3 µM with MOLT-4 leukemia; greater than 71.9 µM in the test with UACC-257 melanoma; greater than 65.9 µM in the test with SF-295 CNS. The values for the TGI in the test on CCRF-CEM leukemia and with K-562 leukemia were 39.6 µM and greater than 35.5 µM, respectively.

For `CCCCCCCCCCCCCCCCOC(=O)C(C(=O)OCCCCCCCCCCCCCCCC)[N+](C)(C)CCOC(C)=O`, the TGI in the test with HT29 colon worked out at 25.9 µM; in the test on SK-MEL-28 melanoma, 40.8 µM; in the test on SF-268 CNS, 44.1 µM; in the test on UACC-257 melanoma, 35 µM; with SF-295 CNS, 35.4 µM; in the test with CCRF-CEM leukemia, 28.6 µM. This compound came in with a TGI in the test on K-562 leukemia of 41 µM.

Turning to `O=C(CC(=O)N1N=C(n2ccc3ccccc32)CC1c1ccccc1)Nc1cccc(Cl)c1` (stereo not drawn), the TGI in the test on HT29 colon, in the test with SK-MEL-28 melanoma, with SF-268 CNS, with MOLT-4 leukemia, in the test on UACC-257 melanoma and in the test on SF-295 CNS was greater than 100 µM each time. For the same compound, the TGI in the test with CCRF-CEM leukemia and with K-562 leukemia was greater than 100 µM each time.
